Test results published in PMC9401498 (Clinical Cancer Research, 2021).

Tested on: renal cell carcinoma (RCC)
Assay: Antitumor activity by RECIST v1.1, RCC cohorts
Type: in vivo, human
[1] = All RCC (n = 28), number (percent) of efficacy evaluable patients

O=C(Cc1cccc(OC(F)(F)F)c1)Nc1ccc(CCCCc2nnc(NC(=O)Cc3ccccn3)s2)nn1 [telaglenastat, Telaglenastat]
Disease control rate (DCR) (28 evaluable patients with RCC in both dose escalation and dose expansion, 14/28): 50% | Best overall response: Partial response [1]: 1 (3.6) | Best overall response: Progressive disease [1]: 14 (50.0) | Best overall response: Stable disease [1]: 13 (46.4) | reduction in target lesions (clear cell RCC patient with PR (800 mg BID)): 32% | patients with RCC remaining on study for more than 10 months (in vivo): Four | time on study (one clear cell patient with RCC): > 2.4 years | overall response rate (renal cell carcinoma): 5%
